Results taken from ChEMBL document CHEMBL4610002, “Selenium bioisosteric replacement of adenosine derivatives promoting adiponectin secretion increases the binding affinity to peroxisome proliferator-activated receptor δ” (Bioorg Med Chem, 2020).
Calls of active or inactive are those of the source. The calls are words filed in the database; no cut-off is given here.

Columns and labels:
[1] = molecular target: T1, Peroxisome proliferator-activated receptor delta (Homo sapiens) (UniProt Q03181); test: Competitive binding affinity to GST-tagged human PPARdelta LBD at 30 uM incubated for 1 to 6 hrs by TR-FRET assay relative to control
T1 sequence (whole entry): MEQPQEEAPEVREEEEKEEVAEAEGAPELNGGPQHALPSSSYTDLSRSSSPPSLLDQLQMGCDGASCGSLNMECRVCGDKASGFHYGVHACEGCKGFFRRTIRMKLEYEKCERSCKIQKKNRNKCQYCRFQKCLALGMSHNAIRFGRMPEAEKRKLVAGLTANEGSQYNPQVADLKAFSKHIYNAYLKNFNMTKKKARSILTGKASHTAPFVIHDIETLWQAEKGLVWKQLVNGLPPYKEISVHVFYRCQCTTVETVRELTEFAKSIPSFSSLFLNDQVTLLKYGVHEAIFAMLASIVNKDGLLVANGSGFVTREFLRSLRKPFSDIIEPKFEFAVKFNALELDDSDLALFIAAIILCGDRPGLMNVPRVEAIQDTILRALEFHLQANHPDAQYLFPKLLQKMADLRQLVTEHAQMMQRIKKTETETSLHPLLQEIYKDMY

[2] = molecular target: T2, Peroxisome proliferator-activated receptor alpha (Homo sapiens) (UniProt Q07869); test: Binding affinity to GST-tagged human PPARalpha LBD up to 30 uM incubated for 2 to 6 hrs by TR-FRET assay
T2 sequence (whole entry): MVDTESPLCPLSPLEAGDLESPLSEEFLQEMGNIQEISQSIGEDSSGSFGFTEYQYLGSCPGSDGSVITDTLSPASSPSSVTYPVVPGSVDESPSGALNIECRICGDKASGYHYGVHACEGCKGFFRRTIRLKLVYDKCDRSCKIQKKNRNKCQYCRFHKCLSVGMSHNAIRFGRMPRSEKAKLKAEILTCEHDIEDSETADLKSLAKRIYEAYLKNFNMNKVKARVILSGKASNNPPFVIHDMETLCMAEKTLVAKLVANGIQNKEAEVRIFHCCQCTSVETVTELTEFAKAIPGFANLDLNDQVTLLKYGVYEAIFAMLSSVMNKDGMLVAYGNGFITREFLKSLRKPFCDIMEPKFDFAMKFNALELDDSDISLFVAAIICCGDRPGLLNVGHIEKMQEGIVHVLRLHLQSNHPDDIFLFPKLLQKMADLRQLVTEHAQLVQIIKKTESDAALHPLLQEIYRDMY

[3] = species on record: Homo sapiens; test: Induction of adipogenesis in human MSC at 10 uM incubated for 5 days cotreated with IDX by ELISA; format: functional
[4] = molecular target: T3, Peroxisome proliferator-activated receptor gamma (Homo sapiens) (UniProt P37231); test: Competitive binding affinity to GST-tagged human PPARgamma LBD at 30 uM incubated for 1 to 6 hrs by TR-FRET assay relative to control
T3 sequence (whole entry): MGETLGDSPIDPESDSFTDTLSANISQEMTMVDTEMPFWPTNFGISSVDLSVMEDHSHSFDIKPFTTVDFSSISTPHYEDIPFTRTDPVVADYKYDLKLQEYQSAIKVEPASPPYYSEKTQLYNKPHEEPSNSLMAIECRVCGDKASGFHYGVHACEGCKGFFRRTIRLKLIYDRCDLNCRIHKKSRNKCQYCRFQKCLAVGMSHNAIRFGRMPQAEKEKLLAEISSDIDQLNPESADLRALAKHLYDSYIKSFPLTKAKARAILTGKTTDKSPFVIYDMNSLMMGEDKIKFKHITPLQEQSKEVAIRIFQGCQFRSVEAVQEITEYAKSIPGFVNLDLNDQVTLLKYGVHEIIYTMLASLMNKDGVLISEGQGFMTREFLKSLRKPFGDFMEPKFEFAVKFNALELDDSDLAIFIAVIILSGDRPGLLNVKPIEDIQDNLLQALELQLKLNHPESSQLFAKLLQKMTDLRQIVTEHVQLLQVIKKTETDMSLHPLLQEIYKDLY

[5] = Induction of adipogenesis in human MSC incubated for 5 days cotreated with IDX by ELISA; format: functional
[6] = molecular target: T3, Peroxisome proliferator-activated receptor gamma (Homo sapiens); test: Partial agonist at PPARgamma LBD (unknown origin) assessed as increase in recruitment of coactivator peptide C33 by TR-FRET assay relative to control
[7] = molecular target: T4, Peroxisome proliferator-activated receptor delta (Homo sapiens, UniProt Q03181); test: Antagonist at PPARdelta LBD (unknown origin) assessed as […] in recruitment of coactivator peptide C33 cotreated with PPARdelta agonist GW501516 by TR-FRET assay
T4 sequence (Q03181 whole entry): T1 sequence (whole entry)

[8] = molecular target: T5, Peroxisome proliferator-activated receptor gamma (Homo sapiens, UniProt P37231); test: (§1) Competitive binding affinity to GST-tagged human PPARgamma LBD incubated for 1 to 6 hrs by TR-FRET assay
T5 sequence (P37231 whole entry): T3 sequence (whole entry)

[9] = molecular target: T4, Peroxisome proliferator-activated receptor delta; test: (§2) Competitive binding affinity to GST-tagged human PPARdelta LBD incubated for 1 to 6 hrs by TR-FRET assay
[10] = species on record: Homo sapiens; test: Induction of adipogenesis in human MSC at 10 uM incubated for 5 days cotreated with IDX by ELISA relative to control; format: functional
[11] = molecular target: T3, Peroxisome proliferator-activated receptor gamma (Homo sapiens); test: Partial agonist at PPARgamma LBD (unknown origin) assessed as inhibition in recruitment of coactivator peptide C33 cotreated with PPARgamma agonist troglitazone by TR-FRET assay
[12] = molecular target: T4, Peroxisome proliferator-activated receptor delta; test: Antagonist activity at PPARdelta LBD (unknown origin) assessed as increase in recruitment of SMRT ID2 corepressor peptide by TR-FRET assay
[13] = species on record: Homo sapiens; test: Induction of adipogenesis in human MSC assessed as increase in size of lipid droplets in differentiated adipocytes at 10 uM by Oil Red O staining based inverted microscopic method; format: functional, cell-based
[14] = species on record: Homo sapiens; test: Induction of adipogenesis in human MSC assessed as increase in number of lipid droplets in differentiated adipocytes at 10 uM by Oil Red O staining based inverted microscopic method; format: functional, cell-based
[15] = molecular target: T3, Peroxisome proliferator-activated receptor gamma (Homo sapiens); test: as §1
[16] = molecular target: T1, Peroxisome proliferator-activated receptor delta (Homo sapiens); test: as §2

SMILES	Activity [1]	Activity [2]	Activity [3]	Activity [4]	also measured
CNC(=O)[C@H]1[Se][C@@H](n2cnc3c(NCc4cccc(Br)c4)ncnc32)[C@H](O)[C@@H]1O	> 50%	inactive	Active	–	–
CNC(=O)[C@H]1[Se][C@@H](n2cnc3c(NCc4cccc(F)c4)nc(Cl)nc32)[C@H](O)[C@@H]1O	> 50%	inactive	Active	–	–
CNC(=O)[C@H]1O[C@@H](n2cnc3c(NCc4cccc(I)c4)ncnc32)[C@H](O)[C@@H]1O	–	inactive	–	–	–
CNC(=O)[C@H]1[Se][C@@H](n2cnc3c(NCc4cccc5ccccc45)ncnc32)[C@H](O)[C@@H]1O	–	inactive	Active	Active	–
CNC(=O)[C@H]1[Se][C@@H](n2cnc3c(NCc4cccc(F)c4)ncnc32)[C@H](O)[C@@H]1O	–	inactive	–	–	–
CCc1ccc(CCOc2ccc(CC3SC(=O)NC3=O)cc2)nc1 (stereo unspecified) [PIOGLITAZONE]	–	–	–	–	EC50 [5]: 0.5 µM
CNC(=O)[C@H]1O[C@@H](n2cnc3c(NCc4cccc(I)c4)nc(Cl)nc32)[C@H](O)[C@@H]1O [NAMODENOSON]	–	inactive	–	–	Activity [6]: < 50%; EC50 [7]: 29.8 µM; EC50 [8]: 2.94 µM; EC50 [9]: 0.191 µM; EC50 [5]: 40.6 µM
CNC(=O)[C@H]1[Se][C@@H](n2cnc3c(NCc4cccc(I)c4)nc(Cl)nc32)[C@H](O)[C@@H]1O	> 50%	inactive	Active	> 50%	fold change (FC) [10]: 3.22; inhibition [11]: Active; Activity [6]: < 50%; EC50 [12]: 7.3 µM; Activity [13]: Active; EC50 [7]: 5.2 µM; Activity [14]: Active; Activity [15]: Dose-dependent effect; EC50 [8]: 5.31 µM; Activity [16]: Dose-dependent effect; EC50 [9]: 0.0144 µM; EC50 [5]: 12.6 µM
CNC(=O)[C@H]1S[C@@H](n2cnc3c(NCc4cccc(I)c4)nc(Cl)nc32)[C@H](O)[C@@H]1O	–	inactive	–	–	Activity [6]: < 50%; EC50 [12]: 16.7 µM; EC50 [7]: 10.7 µM; EC50 [8]: 4.64 µM; EC50 [9]: 0.0411 µM; EC50 [5]: 20.8 µM
CNC(=O)[C@H]1[Se][C@@H](n2cnc3c(NCc4cccc(Br)c4)nc(Cl)nc32)[C@H](O)[C@@H]1O	> 50%	inactive	Active	Active	–
CNC(=O)[C@H]1[Se][C@@H](n2cnc3c(NCc4cccc(Cl)c4)nc(Cl)nc32)[C@H](O)[C@@H]1O	> 50%	inactive	Active	Active	–
CNC(=O)[C@H]1[Se][C@@H](n2cnc3c(NC4CCCC4)ncnc32)[C@H](O)[C@@H]1O	–	inactive	–	–	–
CNC(=O)[C@H]1[Se][C@@H](n2cnc3c(NCc4ccccc4Cl)ncnc32)[C@H](O)[C@@H]1O	–	inactive	–	–	–
CNC(=O)[C@H]1[Se][C@@H](n2cnc3c(NCc4cccc(I)c4)ncnc32)[C@H](O)[C@@H]1O	> 50%	inactive	Active	Active	–
CNC(=O)[C@H]1S[C@@H](n2cnc3c(NCc4cccc(I)c4)ncnc32)[C@H](O)[C@@H]1O	–	inactive	–	–	–
